In patent publication US8436159B2, “Glyphosate resistant class I 5-endolpyruvylshikimate-3-phosphate synthase (EPSPS)” (Monsanto Technology LLC, priority 2003, dated 2013) one finds Ki data, which are given here for one compound.

The test concerns the target T1, maize (Zea mays) class I EPSPS variant TIPT (T102I, P106T), pMON58452, ZmTIPT SEQ ID NO:38 (Zea mays, UniProt O24566, P106T/T102I).
T1 construct: pMON58452
T1 sequence (O24566 1-444 T102I/P106T): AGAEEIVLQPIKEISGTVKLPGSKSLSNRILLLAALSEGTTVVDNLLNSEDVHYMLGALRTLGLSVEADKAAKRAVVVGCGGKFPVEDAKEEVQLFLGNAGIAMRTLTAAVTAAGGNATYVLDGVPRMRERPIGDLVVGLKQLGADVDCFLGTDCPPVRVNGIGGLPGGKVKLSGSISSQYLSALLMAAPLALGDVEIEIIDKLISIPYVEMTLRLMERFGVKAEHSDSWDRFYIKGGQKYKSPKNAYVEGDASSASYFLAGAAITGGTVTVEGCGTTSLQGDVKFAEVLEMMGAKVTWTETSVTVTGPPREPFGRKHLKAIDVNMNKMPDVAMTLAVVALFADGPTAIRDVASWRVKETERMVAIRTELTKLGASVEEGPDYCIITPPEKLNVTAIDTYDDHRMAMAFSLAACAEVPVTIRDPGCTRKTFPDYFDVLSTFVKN
Nature of the test: EPSPS steady-state kinetics, TIPT variant. It is filed as biochemical. The text has this:
The double variants of the present invention were made using pMON58452 (FIG. 5) as the template. This pMON58452 EPSPS gene template contains the maize EPSPS double variant T102I, P106T (TIPT) that was constructed by mutagenesis of pMON70467 with the mutagenesis primers mEmut-9-U and mEmut-10-L. The various mutagenesis primer sequences were designed and then were synthesized by Invitrogen Corp., Custom Primers and used in combination in a PCR to create the variant EPSPS coding sequences. The PCR was set up in a 50 μl reaction in the following manner: dH2O 38 μl; 2 mM dNTP 1 μL; 10× buffer 5 μL; pMON58452 1 μL (10 ng); primer-U 2 μL; primer-L 2 μL; pfu Turbo enzyme 1 μL. PCR was carried out on a MJ Research PTC-200 thermal cycler using the following program: Step 1—94° C. for 30 seconds; Step 2—94° C. for 30 seconds; Step 3—55° C. for 1 minute; Step 4—68° C. for 14 minute; Step 5—go to step 2, 16 times; Step 6—End. At the end of the PCR, 1 μl of the restriction enzyme DpnI was added to each 50 μl of PCR reaction and the mixture was incubated at 37° C. for 1 hour. […]

Regarding `O=C(O)CNCP(=O)(O)O` [glyphosate, N-phosphonomethylglycine], the Ki came out at 101 ± 12.7 µM.
